According to patent EP4342530A1, “SORTILIN MODULATORS” (Insusense ApS, priority 2022, dated 2024):
Read-outs that look alike come from different tables or passages of the source.

Tests used:
[1] = Brain homogenate binding by rapid equilibrium dialysis, rat brain; type: in vitro ADME; conditions: pH 7.4, 37 °C, dilution factor 5, read-out: Unbound (Fu, %)
Procedure: (§1) Plasma protein binding and brain homogenate binding for study compounds in mouse, dog, and rat by rapid equilibrium dialysis
(§2) In practice, unbound fractions in plasma and brain tissue were assessed using rapid equilibrium dialysis in vitro. Separately a pharmacokinetic study was run in vivo whereby a dose of the compound of interest was given at T=0 hours and at subsequent timepoints (eg 0.5, 1 and 4 hours) plasma and separately brain samples were analysed for total concentration of the compound of interest. These total concentrations could then be adjusted with the unbound fraction to give the unbound concentrations in the plasma and brain.
(§3) The test compounds were incubated in plasma and brain homogenate from the relevant species at 37 °C in RED device with inserts (8K MWCO, Thermo scientific) for 4 hours at 5 µM in triplicates. 350 µL of 150 mM phosphate buffered saline (PBS, pH 7.4) was used as the receiver side solutions. […] After 10-minute centrifugation at 13 200 rpm, the sample supernatants were analysed with an LC-MS/MS, to obtain the unbound fraction of the test compound (Fub). The unbound fraction was calculated from the peak area ratios obtained for each matrix: Fub = CPBS /Cplasma; [formula] where CPBS and Cplasma are the analyte concentrations in PBS (receiver) and plasma (donor), respectively. […]

[2] = Plasma protein binding by rapid equilibrium dialysis, dog plasma; type: in vitro ADME
Procedure: as §1, §2, §3

[3] = Kpuu determination in the dog (plasma and CSF time course after oral capsule); type: in vivo, male beagle dog
Procedure: Example 3 was loaded as a solid, Batch No. C2210502, into enteric coated capsule (0#). Fasted male beagle dog was dosed with pentagastrin (0.25 mg/mL and 0.024 mL/kg) at 6 µg/kg by intramuscular (IM) injection at approximately 30 minutes prior to administration of test compound. Capsule containing 20 mg/kg of Example 3 were administered orally and plasma and CSF samples were taken pre-dose, 0.5, 1, 2, 4, 8 12 and 24 hours post dosing and analysed for concentration of Example 3 in analogous fashion to the study above.
Kpuu = AUC0−infcsf/(AUC0−infplasma×(%Fuplasma/100)) [formula] Kpuu = 6414/(23816×(55,5/100)) = 6414/13218 = 0.49 [formula]

[4] = Blood-brain-barrier permeability in mice after IV administration; conditions: male, CD1 (ICR), mouse, intravenous, 3 mg/kg
Procedure: The compound is administered to the animal in a suitable vehicle at T=0 hours. At 0.5 hours post administration plasma and separately brain are removed, prepared and analysed for total compound concentration.
Temperature: 45 °C Injection Volume: 1.5 µl for brain, 4 µl for plasma Ion Source: ESI+, SRM detection
The unbound partition coefficient (Kpuu) was determined as a ratio between the free compound concentrations in plasma and brain: Kpuu = (Cub,brain)/(Cub,plasma) [formula]
Where Cu,brain = unbound concentration in brain (C × Fub, brain); wherein • C = concentration at steady state; and • Cub,plasma = unbound concentration in plasma (C × Fub).

[5] = male, beagle, CSF, 20 mg/kg oral capsule, read-out: CSF concentration
[6] = male, beagle, plasma, 20 mg/kg oral capsule, read-out: Plasma concentration

fraction unbound at 4 h, 5 µM [1]: 0.371
%Fuplasma ([2]; dog plasma, as used for the Kpuu calculation): 55%
fraction unbound at 4 h, 5 µM ([2]; pH 7.4, Dog plasma, 5 µM, 4 hours, 37 °C, read-out: Unbound (Fu, %)): 0.555
CSF concentration ([3]; 20 mg/kg oral capsule, 0,5 h): BQL
Plasma concentration ([3]; 20 mg/kg oral capsule, 0,5 h): 1,04 ng/mL
CSF concentration ([3]; 20 mg/kg oral capsule, 1 h): BQL
Plasma concentration ([3]; 20 mg/kg oral capsule, 1 h): 3,20 ng/mL
CSF concentration ([3]; 20 mg/kg oral capsule, 2 h): 13,7 ng/mL
CSF concentration ([3]; 20 mg/kg oral capsule, 24 h): 27,7 ng/mL
Plasma concentration ([3]; 20 mg/kg oral capsule, 24 h): 87,1 ng/mL
AUC(0-inf) ([3]; male, beagle, CSF, 20 mg/kg oral capsule): 6410 ng·h/mL
concentration at 4 h [3, 5]: 745 ng/mL
concentration at 8 h [3, 5]: 698 ng/mL
concentration at 12 h [3, 5]: 196 ng/mL
AUC(0-inf) ([3]; male, beagle, Plasma, 20 mg/kg oral capsule): 23800 ng·h/mL
concentration at 2 h ([3]; male, beagle, plasma, 20 mg/kg oral capsule, 2 h): 370 ng/mL
concentration at 4 h [3, 6]: 5350 ng/mL
concentration at 8 h [3, 6]: 1400 ng/mL
concentration at 12 h [3, 6]: 390 ng/mL
concentration at 0.5 h ([4]; brain): 61.2 ng/g
Kp at 0.5 h ([4]; brain/plasma): 0.21
concentration at 0.5 h ([4]; plasma): 292 ng/mL
Compound: CC(C)(C)CC[C@H](NCc1ccc2c(c1)COCC2)C(=O)O [Example 3, (S)-2-((isochroman-7-ylmethyl)amino)-5,5-dimethylhexanoic acid]
